What all share (assay): relative viability (nuclei count vs DMSO), 5 days (fraction); higher = more cells survive
Compound in test [1]: COc1cc2nc(N3CCCN(C)CC3)nc(NC3CCN(Cc4ccccc4)CC3)c2cc1OC
In a few lines: (§1)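 For viability, nuclei in each treated well were divided by nuclei in vehicle wells and the median across plates was taken. Lung cancer cell lines in 1536-well plates were pinned with five library-drug doses (not always all listed) spaced by √10, cultured 5 days without medium change, and imaged at 4× after Hoechst staining, with plates passing only at control CV below 25% and at least one doubling.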

Compound in another test: Cc1cc([C@@H](C)Nc2ccccc2C(=O)O)c2nc(N3CCOCC3)cc(=O)n2c1 [AZD6482]
A digest of the protocol:
as §1

Compound in test [2]: COc1cc2nc(N3CCCN(C)CC3)nc(NC3CCN(Cc4ccccc4)CC3)c2cc1OC + Cc1nc(NC(=O)N2CCC[C@H]2C(N)=O)sc1-c1ccnc(C(C)(C)C(F)(F)F)c1 [Alpelisib] (partner 2 µM)
In a few lines: (§2)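 The day after seeding in 1536-well plates, lung cancer cell lines were treated by pin tool with a single drug, or with a fixed anchor-drug dose together with five library-drug doses (not always all listed) in √10 steps. After 5 days, a combined fix-and-stain solution (final 0.05% Triton X-100, 1% formaldehyde, 1 ug/ml Hoechst) was added. Nuclei counted on 4× images gave relative viability as treated counts over vehicle counts, reported as the median of duplicate plates.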

Compound in the test “AZD6482 + Pemetrexed”: Cc1cc([C@@H](C)Nc2ccccc2C(=O)O)c2nc(N3CCOCC3)cc(=O)n2c1 [AZD6482] + Nc1nc2[nH]cc(CCc3ccc(C(=O)N[C@@H](CCC(=O)O)C(=O)O)cc3)c2c(=O)[nH]1 [Pemetrexed] (partner 0.2 µM)
In a few lines:
as §2

This is an account of results in the supplement of paper PMC10307832.

As for HCC-366, the relative viability in test [1] (0.2 µM) is 1.01; in test [1] (0.6325 µM), 1.03; in test [1] (2 µM) it was 0.968; in test [1] (6.325 µM) it was 1.01; with AZD6482 (0.08 µM), 0.975; with AZD6482 (0.253 µM), 0.979. In addition, the relative viability with AZD6482 (0.8 µM) came out at 0.996; with AZD6482 (2.53 µM) it was 0.885; with AZD6482 (8 µM), 0.827; in test [2] (first compound 0.2 µM) it was 0.519; in test [2] (first compound 0.6325 µM), 0.558; in test [2] (first compound 2 µM), 0.468. The relative viability in test [2] (first compound 6.325 µM) turned out to be 0.283; with AZD6482 + Pemetrexed (first compound 0.08 µM), 0.173; in the test with AZD6482 + Pemetrexed (first compound 0.253 µM), 0.202; in the test with AZD6482 + Pemetrexed (first compound 0.8 µM), 0.204; in the test with AZD6482 + Pemetrexed (first compound 2.53 µM), 0.209; with AZD6482 + Pemetrexed (first compound 8 µM), 0.275.

With HCC-827, the relative viability was 1.05 in test [1] (0.2 µM); 1.04 in test [1] (0.6325 µM); 1 in test [1] (2 µM); 1.01 in test [1] (6.325 µM); 0.979 with AZD6482 (0.08 µM); 1.02 with AZD6482 (0.253 µM). Also, the relative viability in the test with AZD6482 (0.8 µM) was 1.02; with AZD6482 (2.53 µM) it was 0.854; in the test with AZD6482 (8 µM), 0.918; in test [2] (first compound 0.2 µM), 0.906; in test [2] (first compound 0.6325 µM), 0.922; in test [2] (first compound 2 µM), 0.952. Also, the relative viability in test [2] (first compound 6.325 µM) was 0.891; with AZD6482 + Pemetrexed (first compound 0.08 µM), 0.251; with AZD6482 + Pemetrexed (first compound 0.253 µM), 0.254; with AZD6482 + Pemetrexed (first compound 0.8 µM), 0.245; in the test with AZD6482 + Pemetrexed (first compound 2.53 µM) it was 0.245; with AZD6482 + Pemetrexed (first compound 8 µM), 0.238.

HOP-62: the relative viability in test [1] (0.2 µM) came out at 0.965; in test [1] (0.6325 µM), 0.954; in test [1] (2 µM) it was 1.1; in test [1] (6.325 µM), 0.96; with AZD6482 (0.08 µM), 1.11; in the test with AZD6482 (0.253 µM) it was 1.1. The relative viability with AZD6482 (0.8 µM) is 1.09; in the test with AZD6482 (2.53 µM), 0.833; with AZD6482 (8 µM) it was 1.01; in test [2] (first compound 0.2 µM) it was 0.878; in test [2] (first compound 0.6325 µM) it was 0.932; in test [2] (first compound 2 µM) it was 0.829. In addition, the relative viability in test [2] (first compound 6.325 µM) was found to be 0.877; with AZD6482 + Pemetrexed (first compound 0.08 µM) it was 0.335; with AZD6482 + Pemetrexed (first compound 0.253 µM), 0.386; with AZD6482 + Pemetrexed (first compound 0.8 µM), 0.363; with AZD6482 + Pemetrexed (first compound 2.53 µM), 0.335; with AZD6482 + Pemetrexed (first compound 8 µM), 0.379.

Regarding LC-2-ad, the relative viability came to 0.929 in test [1] (0.2 µM); 1.05 in test [1] (0.6325 µM); 1.09 in test [1] (2 µM); 0.955 in test [1] (6.325 µM); 0.982 with AZD6482 (0.08 µM); 0.891 in the test with AZD6482 (0.253 µM). For the same cell line, the relative viability is 1.07 with AZD6482 (0.8 µM); 0.658 with AZD6482 (2.53 µM); 0.693 with AZD6482 (8 µM); 0.883 in test [2] (first compound 0.2 µM); 0.89 in test [2] (first compound 0.6325 µM); 0.943 in test [2] (first compound 2 µM). For the same cell line, the relative viability in test [2] (first compound 6.325 µM) turned out to be 0.896; with AZD6482 + Pemetrexed (first compound 0.08 µM), 0.279; with AZD6482 + Pemetrexed (first compound 0.253 µM), 0.293; with AZD6482 + Pemetrexed (first compound 0.8 µM) it was 0.274; in the test with AZD6482 + Pemetrexed (first compound 2.53 µM) it was 0.302; with AZD6482 + Pemetrexed (first compound 8 µM) it was 0.292.

With LCLC-97TM1, the relative viability in test [1] (0.2 µM) came out at 0.936; in test [1] (0.6325 µM) it was 0.996; in test [1] (2 µM), 1.09; in test [1] (6.325 µM) it was 0.947; with AZD6482 (0.08 µM), 1.03; with AZD6482 (0.253 µM), 0.865. Also, the relative viability with AZD6482 (0.8 µM) turned out to be 0.855; in the test with AZD6482 (8 µM), 0.836; in test [2] (first compound 0.2 µM), 0.241; in test [2] (first compound 2 µM), 0.243; in test [2] (first compound 6.325 µM), 0.258; with AZD6482 + Pemetrexed (first compound 0.08 µM), 0.15. Moreover, the relative viability was determined as 0.166 in the test with AZD6482 + Pemetrexed (first compound 0.253 µM), 0.164 in the test with AZD6482 + Pemetrexed (first compound 0.8 µM) and 0.162 with AZD6482 + Pemetrexed (first compound 8 µM).

Take LCLC-103H: the relative viability in test [1] (0.2 µM) turned out to be 0.992; in test [1] (0.6325 µM) it was 1.03; in test [1] (2 µM), 1.1; in test [1] (6.325 µM), 0.978; with AZD6482 (0.08 µM), 0.875; with AZD6482 (0.253 µM) it was 1.04. Also, the relative viability with AZD6482 (0.8 µM) was determined as 0.948; with AZD6482 (2.53 µM) it was 0.655; in the test with AZD6482 (8 µM), 0.575; in test [2] (first compound 0.2 µM), 1.04; in test [2] (first compound 0.6325 µM), 0.648; in test [2] (first compound 2 µM) it was 0.939. Also, the relative viability in test [2] (first compound 6.325 µM) stood at 0.994; with AZD6482 + Pemetrexed (first compound 0.08 µM) it was 0.491; in the test with AZD6482 + Pemetrexed (first compound 0.253 µM), 0.506; with AZD6482 + Pemetrexed (first compound 0.8 µM) it was 0.49; with AZD6482 + Pemetrexed (first compound 2.53 µM), 0.462; with AZD6482 + Pemetrexed (first compound 8 µM), 0.456.

Turning to LK-2, the relative viability in test [1] (0.2 µM) turned out to be 1; in test [1] (0.6325 µM), 1.09; in test [1] (2 µM), 1.06; in test [1] (6.325 µM), 0.995; with AZD6482 (0.08 µM), 1.07; with AZD6482 (0.253 µM), 0.915. Moreover, the relative viability in the test with AZD6482 (0.8 µM) stood at 1.07; with AZD6482 (2.53 µM) it was 0.818; with AZD6482 (8 µM), 0.781; in test [2] (first compound 0.2 µM) it was 1.02; in test [2] (first compound 0.6325 µM), 1.05; in test [2] (first compound 2 µM) it was 1.26. The relative viability in test [2] (first compound 6.325 µM) was determined as 1.01; in the test with AZD6482 + Pemetrexed (first compound 0.08 µM) it was 0.276; with AZD6482 + Pemetrexed (first compound 0.253 µM), 0.276; with AZD6482 + Pemetrexed (first compound 0.8 µM) it was 0.263; in the test with AZD6482 + Pemetrexed (first compound 2.53 µM), 0.193; with AZD6482 + Pemetrexed (first compound 8 µM), 0.176.

On to LOU-NH91, for which the relative viability in test [1] (0.2 µM) was determined as 0.96; in test [1] (0.6325 µM) it was 1.13; in test [1] (2 µM) it was 0.838; in test [1] (6.325 µM), 0.983; with AZD6482 (0.08 µM) it was 0.852; with AZD6482 (0.253 µM) it was 0.918. Besides, the relative viability worked out at 0.959 with AZD6482 (0.8 µM); 0.61 with AZD6482 (2.53 µM); 0.744 with AZD6482 (8 µM); 0.736 in test [2] (first compound 0.2 µM); 0.755 in test [2] (first compound 0.6325 µM); 0.588 in test [2] (first compound 2 µM). Also, the relative viability worked out at 0.642 in test [2] (first compound 6.325 µM); 0.376 with AZD6482 + Pemetrexed (first compound 0.08 µM); 0.373 with AZD6482 + Pemetrexed (first compound 0.253 µM); 0.444 with AZD6482 + Pemetrexed (first compound 0.8 µM); 0.521 with AZD6482 + Pemetrexed (first compound 2.53 µM); 0.493 with AZD6482 + Pemetrexed (first compound 8 µM).
